Measured values reported in patent publication US9339454B2, “Skin whitening agent” (Kao Corporation, priority 2011, dated 2016).

Target: T1, dopa oxidase (Homo sapiens, UniProt P14679)
T1 sequence (P14679 19-529): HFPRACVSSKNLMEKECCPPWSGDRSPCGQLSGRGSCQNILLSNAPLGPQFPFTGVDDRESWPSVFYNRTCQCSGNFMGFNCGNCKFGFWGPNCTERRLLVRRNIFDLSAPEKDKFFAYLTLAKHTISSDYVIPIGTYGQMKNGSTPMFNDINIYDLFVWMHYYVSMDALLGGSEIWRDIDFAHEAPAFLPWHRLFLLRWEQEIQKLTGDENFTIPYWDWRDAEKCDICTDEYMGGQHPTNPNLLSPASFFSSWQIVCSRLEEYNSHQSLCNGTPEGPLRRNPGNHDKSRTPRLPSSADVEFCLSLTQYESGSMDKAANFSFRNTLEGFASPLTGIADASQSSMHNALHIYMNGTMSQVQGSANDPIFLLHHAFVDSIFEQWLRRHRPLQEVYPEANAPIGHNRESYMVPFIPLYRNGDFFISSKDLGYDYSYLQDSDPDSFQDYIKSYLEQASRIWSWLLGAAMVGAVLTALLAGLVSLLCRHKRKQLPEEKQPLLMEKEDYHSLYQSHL
Assay: Dopa oxidase activity in cultured melanocytes (MBTH method)
Assay type: cell-based
Conditions: for Dopa oxidase activity of fractions, result in words: activity-guided fractionation of haguro-so 50% ethanol extract, same procedure as Example 1; for inhibition at 0.1 µM: evaluation concentration 0.1 μM; for inhibition at 0.1 µM / inhibition at 0.5 µM / inhibition at 1 µM: relative to control, read-out: Dopa oxidase inhibitory rate (%); for inhibition at 0.5 µM: evaluation concentration 0.5 μM; for inhibition at 1 µM: evaluation concentration 1.0 μM
Protocol: Normal human neonatal epidermal melanocytes (NHEMs; KURABO INDUSTRIES, LTD.) were seeded in a 96-well plates at a density of 1×10^4 cells/well ([…]) and cultured at 37° C. under a 5% CO2. Cells were maintained in Medium 254 (KURABO INDUSTRIES, LTD.) containing growth supplement (HMGS) without PMA.
After 3-day culture, the haguro-so extracts (water extract, 50% ethanol extract, or 95% ethanol extract) prepared in accordance with the above Production Examples 1 to 3 and having an evaporation residue of 1.0 w/v % were each added to give a final concentration shown in Table 1 together with Endothelin-1 (ET-1), SCF, α-MSH, Histamine, and PGE2 adjusted to have a final concentration of 1 nM in each medium, and cultured under the conditions of 37° C. and a 5% CO2 for 3 days. For a control, an ethanol aqueous solution (10%, 50%, or 95%) of the equal amount was added.
After completion of culture, Alamar Blue (Invitrogen) reagent was added in an amount of 20 μL/well and incubated for 2 to 3 hours, followed by measuring the fluorescence intensity of the medium to measure the cellular respiration activity. […] The dopa oxidase activity was measured by the following method with reference to the MBTH method (Winder A. et al., 1991, Eur. J. Biochem. 198: 317-326).
To each of the wells containing the solubilized cell solution, 80 μL of the above assay buffer, 60 μL of 20.7 mM MBTH (3-methyl-2-benzothiazolinon hydrazone) solution, and 40 μL of 5 mM L-dopa(L-dihydroxyphenylalanine) solution as a substrate were added, reacted at 37° C. for 30 to 60 minutes, thereby measuring the color reaction thereof at 490 nm absorbance (N=3). The measured values were shown in the relative value to the result of the control.
Normal human neonatal epidermal melanocytes (NHEMs; KURABO INDUSTRIES, LTD.) were inoculated in a 96-well plate in a cell density of 1×10^4 cells/well (100 μL/well) and cultured at 37° C. under a 5% CO2. The medium used was Medium 254 containing PMA(−) growth supplement (HMGS).
After 3-day culture, each of the compounds shown in Table 4 was added to give final concentrations shown in the same Table, together with Endothelin-1 (ET-1), SCF, α-MSH, Histamine, and PGE2 adjusted to give a final concentration of 1 nM in each medium, and cultured under the conditions of 37° C. and a 5% CO2 for 3 days. For a control, a DMSO solution of the equal amount was added.
After completion of the culture, Alamar Blue (Invitrogen) reagent was added in an amount of 20 μL/well and incubated for 2 to 3 hours, followed by measuring the fluorescence intensity of the medium to measure the cellular respiration activity. […] The dopa oxidase activity was measured by the following method with reference to the MBTH method (Winder A. et al., Eur. J. Biochem., 1991, 198: 317-326).
To each of the wells containing the solubilized cell solution, 80 μL of the above assay buffer, 60 μL of 20.7 mM MBTH (3-methyl-2-benzothiazolinon hydrazone) solution and 40 μL of 5 mM L-dopa (L-dihydroxyphenylalanine) solution as a substrate were added, reacted at 37° C. for 30 to 60 minutes, thereby measuring the color reaction thereof at 490 nm absorbance (N=3).

Compound | Dopa oxidase activity of fractions, result in words | inhibition at 0.1 µM (NHEMs, 3 days) [%] | inhibition at 0.5 µM (NHEMs, 3 days) [%] | Dopa oxidase inhibitory rate (%) (evaluation concentration printed 0.1 μM as third concentration after 0.1 and 0.5, NHEMs, 3 days) | inhibition at 1 µM (NHEMs, 3 days) [%]
COc1cc2c(OC)c3c(c(-c4ccc5c(c4)OCO5)c2cc1OC)C(=O)OC3 [Compound 1, Justicidin A] | found | 20 | 50 | 55 | 
COc1cc2c(OC(C)=O)c3c(c(-c4ccc5c(c4)OCO5)c2cc1OC)C(=O)OC3 [Compound 6, 4-acetoxy-6,7-dimethoxy-9-(1,3-benzodioxol-5-yl)naphtho[2,3-c]furan-1(3H)-one] |  |  | 40 |  | 50
CCOc1c2c(c(-c3ccc4c(c3)OCO4)c3cc(OC)c(OC)cc13)C(=O)OC2 [Compound 5, 4-Ethoxy-6,7-dimethoxy-9-(1,3-benzodioxol-5-yl)naphtho[2,3-c]furan-1(3H)-one] |  | 40 | 60 |  | 
COc1cc2c(O[C@H]3OCC(O)(CO)C3O)c3c(c(-c4ccc5c(c4)OCO5)c2cc1OC)C(=O)OC3 (stereo partly shown) [Compound 3, Tuberculatin] | found | 45 | 50 |  | 70
COc1cc2c(O)c3c(c(-c4ccc5c(c4)OCO5)c2cc1OC)C(=O)OC3 [Compound 4, Diphyllin] |  |  | 20 |  | 40
COc1cc2cc3c(c(-c4ccc5c(c4)OCO5)c2cc1OC)C(=O)OC3 [Compound 2, Justicidin B] | found | 10 | 30 |  | 50
COc1c2c(c(-c3ccc4c(c3)OCO4)c3cc4c(cc13)OCO4)C(=O)OC2 [Compound 7, Justicidin F] |  | 20 |  |  | 
